Test results published in US12220421B2, “Inhibitors of C. difficile spore germination” (THE BOARDS OF REGENTS OF THE NEVADA SYSTEM OF HIGHER …, priority 2021, dated 2025).
Where two headings read alike, the source gives them in different places.

System: C. difficile R20291 spores
Test: C. difficile spore germination assay (optical density, OD580)
Conditions: 6 mM taurocholate, 12 mM glycine; for activity at 125 µM / IC50: Clostridioides difficile, R20291SPORES; for activity at 125 µM: compound 125 μM; for % Germination: compound 125 uM
[1] = read-out: % Germination, Table 2, ± standard deviation
[2] = read-out: % Germination (125 μM), Table 5, 100% indicates no inhibition
[3] = read-out: % Germination, Table 3, ± standard deviation

Compound `Cc1ccc2c(c1)CCN2C(=O)CC[C@@H](C)[C@H]1CC[C@H]2[C@@H]3[C@H](O)C[C@@H]4C[C@H](O)CC[C@]4(C)[C@H]3C[C@H](O)[C@]12C` [Compound 3] has an activity at 125 µM [1] of 100%.

`C[C@H](CCC(=O)Nc1cccc(F)c1)[C@H]1CC[C@H]2[C@@H]3[C@@H](O)C[C@]4(C)C[C@H](O)CC[C@]4(C)[C@H]3CC[C@]12C` [Compound 67] showed an activity at 125 µM [2] of 100%.

Work on `C[C@H](CCC(=O)Nc1cccc(F)c1)[C@H]1CC[C@H]2[C@@H]3[C@H](O)C[C@@H]4C[C@H](O)CC[C@]4(C)[C@H]3CC[C@]12C` [Compound 55] yielded an activity at 125 µM [2] of 100%.

With `C[C@H](CCc1ncc2cccc(F)c2n1)[C@H]1CC[C@H]2[C@@H]3[C@H](O)C[C@@H]4C[C@H](O)CC[C@]4(C)[C@H]3C[C@H](O)[C@]12C` [Compound 38] the IC50 (Table 3) was 79 ± 23 µM and the activity at 125 µM [3] was 7 ± 0.7%.

Compound `Cc1ccc(F)cc1NC(=O)CC[C@@H](C)[C@H]1CC[C@H]2[C@@H]3[C@H](O)C[C@@H]4C[C@H](O)CC[C@]4(C)[C@H]3CC[C@]12C` [Compound 56] has an activity at 125 µM [2] of 66 ± 6%.

`C=CCN(CC=C)C(=O)CC[C@@H](C)[C@H]1CC[C@H]2[C@@H]3[C@H](O)C[C@@H]4C[C@H](O)CC[C@]4(C)[C@H]3C[C@H](O)[C@]12C` [Compound 15] was tested, and the IC50 (Table 2) was 8 ± 3 µM and the activity at 125 µM [1] was 0.9 ± 0.2%.

For `C[C@H](CCC(=O)Nc1cccc(F)c1)[C@H]1CC[C@H]2[C@@H]3CC[C@@H]4C[C@H](O)CC[C@]4(C)[C@H]3C[C@H](O)[C@]12C` [Compound 59], the activity at 125 µM [2] was 59 ± 5%.

`Cc1ccc(F)cc1NC(=O)CC[C@@H](C)[C@H]1CC[C@H]2[C@@H]3CC[C@@H]4C[C@H](O)CC[C@]4(C)[C@H]3C[C@H](O)[C@]12C` [Compound 60] showed an activity at 125 µM [2] of 65 ± 0.9%.

`C[C@H](CCc1ncc2c(F)cccc2n1)[C@H]1CC[C@H]2[C@@H]3[C@H](O)C[C@@H]4C[C@H](O)CC[C@]4(C)[C@H]3C[C@H](O)[C@]12C` [Compound 32] was tested, and the activity at 125 µM [3] was 36 ± 6%.

`C[C@H](CCC(=O)N1CCc2cc(Br)ccc2C1)[C@H]1CC[C@H]2[C@@H]3[C@H](O)C[C@@H]4C[C@H](O)CC[C@]4(C)[C@H]3C[C@H](O)[C@]12C` [Compound 13] gave an activity at 125 µM [1] of 100%.

In the case of `C[C@H](CCC(=O)Nc1ccccc1)[C@H]1CC[C@H]2[C@@H]3CC[C@@H]4C[C@H](O)CC[C@]4(C)[C@H]3C[C@H](O)[C@]12C` [Compound 57], the IC50 (Table 5) is reported as 1.3 ± 0.1 µM and the activity at 125 µM [2] is reported as 3 ± 0.2%.

Work on `C[C@H](CCc1ncc2cc(F)c(F)cc2n1)[C@H]1CC[C@H]2[C@@H]3[C@H](O)C[C@@H]4C[C@H](O)CC[C@]4(C)[C@H]3C[C@H](O)[C@]12C` [Compound 41] yielded an activity at 125 µM [3] of 70 ± 23%.

With `C[C@H](CCc1nc2ccccc2o1)[C@H]1CC[C@H]2[C@@H]3[C@H](O)C[C@@H]4C[C@H](O)CC[C@]4(C)[C@H]3C[C@H](O)[C@]12C` [Compound 50] the IC50 (Table 4) was 6 ± 3 µM and the “% Germination” value (Table 4, ± standard deviation) was −4 ± 0.8%.

With `C[C@H](CCc1nc2ccccc2s1)[C@H]1CC[C@H]2[C@@H]3[C@H](O)C[C@@H]4C[C@H](O)CC[C@]4(C)[C@H]3C[C@H](O)[C@]12C` [Compound 49] the “% Germination” value (Table 4, ± standard deviation) was 81 ± 2%.

In the case of `C[C@H](CCC(=O)N1CCc2ccccc2C1)[C@H]1CC[C@H]2[C@@H]3[C@H](O)C[C@@H]4C[C@H](O)CC[C@]4(C)[C@H]3C[C@H](O)[C@]12C` [Compound 11], the activity at 125 µM [1] is reported as 78 ± 2%.

`C[C@H](CCC(=O)Nc1ccccc1)[C@H]1CC[C@H]2[C@@H]3[C@@H](O)C[C@@H]4C[C@H](O)CC[C@]4(C)[C@H]3CC[C@]12C` [Compound 65] gave an activity at 125 µM [2] of 57 ± 0.8%.
